Laboratory results from patent publication US20250186408A1, “TREATMENT OF PHARMACORESISTANT EPILEPSY” (Katholieke Universiteit Leuven, priority 2021, published 2025).
Like-named read-outs stand apart in the source and are kept apart here.

Assays:
HTR3A = target: T1, HTR3A (Homo sapiens, UniProt P46098); experiment: Ion Channel HTR3A Blocker; format: cell-based; conditions: for Emax: Ion Channel HTR3A Blocker, read-out: Max response
T1 sequence (P46098 24-478): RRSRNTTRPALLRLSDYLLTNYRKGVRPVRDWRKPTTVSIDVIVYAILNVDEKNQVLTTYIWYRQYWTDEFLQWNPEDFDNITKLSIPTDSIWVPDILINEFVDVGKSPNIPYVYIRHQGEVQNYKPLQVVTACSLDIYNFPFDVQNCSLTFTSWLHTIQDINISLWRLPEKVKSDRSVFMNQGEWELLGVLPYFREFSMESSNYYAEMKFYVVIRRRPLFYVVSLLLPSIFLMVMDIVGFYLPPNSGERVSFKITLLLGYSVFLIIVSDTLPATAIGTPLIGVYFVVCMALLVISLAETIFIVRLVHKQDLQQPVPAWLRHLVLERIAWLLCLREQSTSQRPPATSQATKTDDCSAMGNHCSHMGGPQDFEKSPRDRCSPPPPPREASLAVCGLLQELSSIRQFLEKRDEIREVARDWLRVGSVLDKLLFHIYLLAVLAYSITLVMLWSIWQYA

ROCK1 = target: T2, ROCK1 (Homo sapiens, UniProt Q13464); experiment: Binding (KINOMEscan) ROCK1 Inhibitor; conditions: for IC50: read-out: RC50, result type IC50; for Emax: read-out: Max response
T2 construct: purchased Eurofins DiscoverX Corporation 87-1003DR; host or cells: E. coli BL21-derived host (T7 phage) or HEK-293
Procedure: For most assays, kinase-tagged T7 phage strains were grown in parallel in 24-well blocks in an E. coli host derived from the BL21 strain. E. coli were grown to log-phase and infected with T7 phage from a frozen stock (multiplicity of infection=0.4) and incubated with shaking at 32° C. until lysis (90-150 min). The lysates were centrifuged (6,000×g) and filtered (0.2 μm) to remove cell debris. The remaining kinases were produced in HEK-293 cells and subsequently tagged with DNA for qPCR detection. Streptavidin-coated magnetic beads were treated with biotinylated small molecule ligands for 30 min at RT to generate affinity resins for kinase assays. The liganded beads were blocked with excess biotin and washed with blocking buffer (SeaBlock (Pierce), 1% BSA, 0.05% Tween 20, 1 mM DTT) to remove unbound ligand and to reduce non-specific phage binding. […] All reactions were performed in polypropylene 384-well plates in a final volume of 0.02 mL. […] The beads were then re-suspended in elution buffer (1×PBS, 0.05% Tween 20, 0.5 μM non-biotinylated affinity ligand) and incubated at RT with shaking for 30 min. The kinase concentration in the eluates was measured by qPCR.
The kinase concentration in the eluates was measured by qPCR. qPCR reactions were assembled by adding 2.5 μL of kinase eluate to 7.5 μL of qPCR master mix containing 0.15 μM amplicon primers and 0.15 μM amplicon probe. The qPCR protocol consisted of a 10 min hot start at 95° C., followed by 35 cycles of 95° C. for 15 sec, 60° C. for 1 min.
Binding constants (Kds) were calculated with a standard dose-response curve using the Hill equation: […]

SERT = target: T3, SERT (Homo sapiens, UniProt P31645); experiment: Transporter SERT Blocker; format: cell-based; conditions: for Emax: Transporter SERT Blocker, read-out: Max response
T3 construct: Eurofins DiscoverX Corporation 87-1003DR; host or cells: unnamed cell lines
Procedure: After cell plating and incubation, media was removed an 25 μL of 1× compound in 1×HBSS/0.1% BSA was added. Compounds were incubated with cells for 30 min at 37° C. After compound incubation, 25 μL of 1× dye loading buffer (1× dye, 1×HBSS/20 mM HEPES) was added to the wells. Cells were incubated for 30-60 min at 37° C. After incubation, microplates were transferred to a PerkinElmer Envision™ instrument for fluorescent signal detection. […] For blocker mode assays, percentage of inhibition was calculated using the following formula: […]

HTR1B = HTR1B (Homo sapiens, UniProt P28222); experiment: cAMP HTR1B Agonist; conditions: for Emax: read-out: Max response
Procedure: (§1) In vitro pharmacological profiling of compounds was done against 78 functional assays for 47 common off-targets (30) by Eurofins DiscoverX Corporation (Fremont, CA, USA) using their SAFETYscan E/IC50 ELECT service (Cat Ref 87-1003DR, Safety47 Panel Dose Response). […] Compounds were tested in a range of 10 concentrations, following a 3-fold serial dilution, starting from 10 μM.
(§2) cAMP Hunter cell lines were expanded from freezer stocks. Prior to testing, cells were seeded in a total volume of 20 μL into white walled 384-well microplates and incubated at 37° C. cAMP modulation was determined using the DiscoverX HitHunter cAMP XS+ assay. For Gs agonist determination, cells were incubated with sample to induce response. For Gi agonist determination, cells were incubated with sample in the presence of EC80 forskolin to induce response. For both conditions, media was aspirated from cells and replaced with 15 μL 2:1 HBSS/10 mM HEPES:cAMP XS+ Ab reagent. Intermediate dilution of sample stocks was performed to generate 4× sample in assay buffer (containing 4×EC80 forskolin in the case of antagonist determination). 5 μL of 4× sample was added to cells and incubated at 37° C. or room temperature (RT) for 30 or 60 min. Final assay vehicle concentration was 1%. For antagonist determination, cells were pre-incubated with sample followed by agonist challenge at the EC80 concentration. Media was aspirated from cells and replaced with 10 μL 1:1 HBSS/HEPES:cAMP XS+ Ab reagent. 5 μL of 4× compound was added to the cells and incubated at 37° C. or RT for 30 min. 5 μL of 4×EC80 agonist was added to the cells and incubated at 37° C. or RT for 30 or 60 min. For Gi coupled GPCRs, EC80 forskolin was included. […] Microplates were read following signal generation with a PerkinElmer Envision™ instrument for chemiluminescent signal detection. Compound activity was analyzed using CBIS data analysis suite (ChemInnovation, CA).

OPRK1 = OPRK1 (Homo sapiens, UniProt P41145); experiment: cAMP OPRK1 Agonist; conditions: for Emax: read-out: Max response
Procedure: as §1, §2

OPRM1 = OPRM1 (Homo sapiens, UniProt P35372); experiment: cAMP OPRM1 Antagonist; conditions: for Emax: OPRM1, read-out: Max response
Procedure: (§3) In vitro pharmacological profiling of compounds was done against 78 functional assays for 47 common off-targets (30) by Eurofins DiscoverX Corporation (Fremont, CA, USA) using their SAFETYscan E/IC50 ELECT service (Cat Ref 87-1003DR, Safety47 Panel Dose Response). […] Compounds were tested in a range of 10 concentrations, following a 3-fold serial dilution, starting from 10 μM. The assays were performed utilizing the PathHunter enzyme fragment complementation (EFC) technology, FLIPR®-based cellular screening assays, and KINOMEscan kinase binding assays.
cAMP Hunter cell lines were expanded from freezer stocks. Prior to testing, cells were seeded in a total volume of 20 μL into white walled 384-well microplates and incubated at 37° C. cAMP modulation was determined using the DiscoverX HitHunter cAMP XS+ assay. For Gs agonist determination, cells were incubated with sample to induce response. For Gi agonist determination, cells were incubated with sample in the presence of EC80 forskolin to induce response. For both conditions, media was aspirated from cells and replaced with 15 μL 2:1 HBSS/10 mM HEPES:cAMP XS+ Ab reagent. Intermediate dilution of sample stocks was performed to generate 4× sample in assay buffer (containing 4×EC80 forskolin in the case of antagonist determination). 5 μL of 4× sample was added to cells and incubated at 37° C. or room temperature (RT) for 30 or 60 min. Final assay vehicle concentration was 1%. For antagonist determination, cells were pre-incubated with sample followed by agonist challenge at the EC80 concentration. Media was aspirated from cells and replaced with 10 μL 1:1 HBSS/HEPES:cAMP XS+ Ab reagent. 5 μL of 4× compound was added to the cells and incubated at 37° C. or RT for 30 min. 5 μL of 4×EC80 agonist was added to the cells and incubated at 37° C. or RT for 30 or 60 min. For Gi coupled GPCRs, EC80 forskolin was included. […] Microplates were read following signal generation with a PerkinElmer Envision™ instrument for chemiluminescent signal detection. Compound activity was analyzed using CBIS data analysis suite (ChemInnovation, CA). For Gs agonist mode assays, percentage activity was calculated using the following equation:

HTR2B = HTR2B (Homo sapiens, UniProt P41595); experiment: Calcium Flux HTR2B Agonist; conditions: for Emax: read-out: Max response
Procedure: as §3
(§4) Prior to testing, cells (10,000 cells/well) were expanded from freezer stocks and seeded into a total volume of 50 μL into black walled, clear-bottom, Poly-D-lysine coated 384-well microplates and incubated at 37° C. […] Assays were performed in 1× dye loading buffer consisting of 1× Dye (DiscoverX, Calcium No Wash^PLUS kit, Catalog No. 90-0091), 1× Additive A and 2.5 mM Probenecid in HBSS/20 mM HEPES. Probenecid was prepared fresh. Prior to testing, media was aspirated from cells and replaced with 25 μL dye loading buffer. Cells were incubated for 45 min at 37° C. and then 20 min at RT. For agonist determination, 25 μL of 2× compound in HBSS/20 mM HEPES was added using a FLIPR Tetra (MDS). For antagonist determination, cells were pre-incubated with sample followed by agonist challenge at the EC80 concentration. 25 μL of 2× sample was added and cells were incubated for 30 min at RT in the dark to equilibrate plate temperature. After incubation, antagonist determination was initiated by addition of 25 μL of 1× compound with 3×EC80 agonist using FLIPR. For both agonist and antagonist formats, activity was measure on a FLIPR Tetra (MDS). Calcium mobilization was monitored for 2 min with a 5 sec baseline read.
(§5) FLIPR read—Area under the curve, was calculated for the entire 2 min read. Compound activity was analysed using CBIS data analysis suite (ChemInnovation, CA).

HTR2A = HTR2A (Homo sapiens, UniProt P28223); experiment: Calcium Flux HTR2A Antagonist; conditions: for Emax: read-out: Max response
Procedure: as §3, §4, §5

[1] = Pharmacokinetic analysis in naïve mice; conditions: single i.p. 300 mg/kg, male NMRI mice
Procedure: After the treatment period, blood samples were drawn from the tail veins, collected in Greiner MiniCollect K2EDTA tubes, and centrifuged twice for 5 min at 15,000 g to obtain plasma samples. Three volumes of acetonitrile were added to one volume of plasma to precipitate out the proteins. The samples were vortexed for 20 s and placed on ice. Immediately after, they were centrifuged at 5,000 g for 10 min and again at 10,000 g for 2 min. The resulting supernatants were transferred to Eppendorf tubes and centrifuged for 2 min at 10,000 g. Finally, the supernatants were collected for analysis by LC-MS/MS to determine the targeted compound concentration. Percentage recovery was determined as follows: known concentrations of the compound were spiked into the blank plasma and acetonitrile was added (3:1 ratio) to precipitate out the proteins. Samples were vortexed for 20 s and placed on ice. The resulting supernatants were isolated via centrifugation as described above. The targeted compounds were identified using LC-MS/MS to detect their characteristic ions. Plasma concentrations at each point were plotted as a function of time.
Brain samples were collected at the same time points as described for blood samples. Male NMRI mice were overdosed with dolethal via i.p. administration. Mice were perfused with 0.9% saline and brains were collected in Eppendorf tubes. Brains were weighed, whereafter 400 μL of acetonitrile was added to the samples. […] Homogenized samples were centrifuged at 5,000 g for 10 min and again at 10,000 g for 2 min. The resulting supernatants were transferred to Eppendorf tubes and centrifuged for 2 min at 10,000 g. Finally, the supernatants were collected for analysis by LC-MS/MS to determine the targeted compound concentration in the brain tissue.
The compound concentrations in mouse plasma and brain were determined by LC-MS/MS.

T2 sequence (Q13464 whole entry): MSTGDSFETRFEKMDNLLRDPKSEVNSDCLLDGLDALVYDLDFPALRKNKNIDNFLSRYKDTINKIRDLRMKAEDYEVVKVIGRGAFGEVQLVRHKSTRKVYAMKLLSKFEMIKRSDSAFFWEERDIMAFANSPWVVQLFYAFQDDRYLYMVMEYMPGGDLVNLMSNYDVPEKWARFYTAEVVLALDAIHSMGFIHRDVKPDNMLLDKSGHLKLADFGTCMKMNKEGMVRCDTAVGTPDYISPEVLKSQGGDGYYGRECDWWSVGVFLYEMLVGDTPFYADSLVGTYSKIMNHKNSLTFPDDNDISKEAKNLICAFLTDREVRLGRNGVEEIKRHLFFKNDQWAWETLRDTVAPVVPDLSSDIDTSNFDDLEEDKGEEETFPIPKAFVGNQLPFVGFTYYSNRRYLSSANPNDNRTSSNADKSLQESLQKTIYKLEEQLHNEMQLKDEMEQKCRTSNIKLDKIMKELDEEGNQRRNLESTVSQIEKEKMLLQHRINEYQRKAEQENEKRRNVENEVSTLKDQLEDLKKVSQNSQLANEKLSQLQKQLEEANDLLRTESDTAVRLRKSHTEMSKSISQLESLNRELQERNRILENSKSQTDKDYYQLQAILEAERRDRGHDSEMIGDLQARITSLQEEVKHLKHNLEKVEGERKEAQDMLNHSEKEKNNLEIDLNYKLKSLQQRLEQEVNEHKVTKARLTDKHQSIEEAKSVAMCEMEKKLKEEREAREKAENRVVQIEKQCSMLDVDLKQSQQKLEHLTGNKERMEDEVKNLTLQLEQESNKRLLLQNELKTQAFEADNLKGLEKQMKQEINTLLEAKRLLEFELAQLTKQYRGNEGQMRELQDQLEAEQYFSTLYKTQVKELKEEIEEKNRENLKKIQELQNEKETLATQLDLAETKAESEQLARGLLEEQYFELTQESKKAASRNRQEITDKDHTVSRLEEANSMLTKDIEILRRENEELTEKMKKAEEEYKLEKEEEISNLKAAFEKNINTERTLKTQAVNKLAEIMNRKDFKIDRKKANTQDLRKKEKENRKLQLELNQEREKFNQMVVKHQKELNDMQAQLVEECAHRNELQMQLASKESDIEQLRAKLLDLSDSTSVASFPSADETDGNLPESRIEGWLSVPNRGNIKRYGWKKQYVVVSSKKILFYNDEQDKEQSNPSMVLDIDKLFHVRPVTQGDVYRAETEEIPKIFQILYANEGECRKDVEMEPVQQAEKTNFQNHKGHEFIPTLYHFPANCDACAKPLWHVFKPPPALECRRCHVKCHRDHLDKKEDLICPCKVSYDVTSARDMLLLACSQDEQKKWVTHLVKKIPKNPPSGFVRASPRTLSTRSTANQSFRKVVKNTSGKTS
Chain of HTR2B (P41595 whole entry): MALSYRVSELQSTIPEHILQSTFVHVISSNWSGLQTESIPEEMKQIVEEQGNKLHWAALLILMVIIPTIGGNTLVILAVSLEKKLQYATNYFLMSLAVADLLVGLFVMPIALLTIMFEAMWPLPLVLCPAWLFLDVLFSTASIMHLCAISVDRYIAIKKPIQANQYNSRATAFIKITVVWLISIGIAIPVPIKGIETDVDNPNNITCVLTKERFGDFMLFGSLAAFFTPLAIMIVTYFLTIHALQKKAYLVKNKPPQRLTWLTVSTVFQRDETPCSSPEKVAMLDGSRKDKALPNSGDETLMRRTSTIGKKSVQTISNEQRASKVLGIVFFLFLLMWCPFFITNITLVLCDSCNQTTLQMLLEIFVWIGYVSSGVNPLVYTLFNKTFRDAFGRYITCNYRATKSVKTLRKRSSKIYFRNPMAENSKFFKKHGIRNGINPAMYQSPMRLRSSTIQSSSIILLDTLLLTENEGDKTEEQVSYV
Chain of HTR2A (P28223 whole entry): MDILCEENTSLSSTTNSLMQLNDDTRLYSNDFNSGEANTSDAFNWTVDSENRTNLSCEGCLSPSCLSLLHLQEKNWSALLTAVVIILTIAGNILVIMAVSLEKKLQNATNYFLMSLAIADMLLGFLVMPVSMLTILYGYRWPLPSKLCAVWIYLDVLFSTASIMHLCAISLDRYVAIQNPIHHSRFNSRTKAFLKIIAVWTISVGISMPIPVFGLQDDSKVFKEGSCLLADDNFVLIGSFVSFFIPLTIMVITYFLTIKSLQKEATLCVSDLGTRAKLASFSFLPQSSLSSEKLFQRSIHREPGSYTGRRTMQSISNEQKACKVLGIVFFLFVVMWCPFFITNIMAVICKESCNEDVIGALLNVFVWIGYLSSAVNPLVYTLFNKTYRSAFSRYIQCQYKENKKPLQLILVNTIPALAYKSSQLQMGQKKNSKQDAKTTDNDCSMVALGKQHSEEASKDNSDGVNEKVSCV
Chain of OPRM1 (P35372 whole entry): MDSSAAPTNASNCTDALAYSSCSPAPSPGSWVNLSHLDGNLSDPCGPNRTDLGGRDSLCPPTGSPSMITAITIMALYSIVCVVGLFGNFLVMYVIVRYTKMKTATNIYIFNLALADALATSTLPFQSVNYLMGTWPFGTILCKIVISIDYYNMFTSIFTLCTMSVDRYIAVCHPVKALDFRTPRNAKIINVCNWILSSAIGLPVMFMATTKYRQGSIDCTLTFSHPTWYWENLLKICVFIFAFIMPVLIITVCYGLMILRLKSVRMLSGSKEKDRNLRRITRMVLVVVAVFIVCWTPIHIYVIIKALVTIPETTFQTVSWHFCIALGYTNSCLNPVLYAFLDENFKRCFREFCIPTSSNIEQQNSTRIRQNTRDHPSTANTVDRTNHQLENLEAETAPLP
Chain of OPRK1 (P41145 whole entry): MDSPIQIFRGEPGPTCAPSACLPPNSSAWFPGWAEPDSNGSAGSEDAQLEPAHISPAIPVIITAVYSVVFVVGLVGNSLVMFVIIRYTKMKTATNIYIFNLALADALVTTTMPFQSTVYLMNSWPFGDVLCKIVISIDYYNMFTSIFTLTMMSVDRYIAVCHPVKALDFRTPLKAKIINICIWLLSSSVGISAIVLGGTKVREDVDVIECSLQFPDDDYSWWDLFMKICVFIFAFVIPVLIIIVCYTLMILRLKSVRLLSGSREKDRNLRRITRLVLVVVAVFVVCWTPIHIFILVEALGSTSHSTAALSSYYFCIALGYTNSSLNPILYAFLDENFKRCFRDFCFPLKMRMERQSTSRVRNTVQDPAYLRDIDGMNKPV
T3 sequence (P31645 whole entry): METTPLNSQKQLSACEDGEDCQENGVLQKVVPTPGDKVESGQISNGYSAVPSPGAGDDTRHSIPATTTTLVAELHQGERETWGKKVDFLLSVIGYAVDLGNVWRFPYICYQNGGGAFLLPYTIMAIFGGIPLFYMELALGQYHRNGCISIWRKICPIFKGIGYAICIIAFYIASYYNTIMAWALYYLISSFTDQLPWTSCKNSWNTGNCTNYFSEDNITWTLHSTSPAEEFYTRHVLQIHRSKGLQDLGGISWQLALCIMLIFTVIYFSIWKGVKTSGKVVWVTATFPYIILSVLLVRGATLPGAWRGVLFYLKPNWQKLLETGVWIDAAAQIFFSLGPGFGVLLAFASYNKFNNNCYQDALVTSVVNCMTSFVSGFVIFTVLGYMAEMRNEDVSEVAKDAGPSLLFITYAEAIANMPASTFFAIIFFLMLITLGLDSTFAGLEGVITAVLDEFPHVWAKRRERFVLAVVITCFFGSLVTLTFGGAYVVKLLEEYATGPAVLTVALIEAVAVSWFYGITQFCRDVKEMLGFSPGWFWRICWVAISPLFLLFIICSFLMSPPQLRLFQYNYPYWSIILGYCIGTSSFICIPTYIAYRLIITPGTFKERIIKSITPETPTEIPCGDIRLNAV
Chain of HTR1B (P28222 whole entry): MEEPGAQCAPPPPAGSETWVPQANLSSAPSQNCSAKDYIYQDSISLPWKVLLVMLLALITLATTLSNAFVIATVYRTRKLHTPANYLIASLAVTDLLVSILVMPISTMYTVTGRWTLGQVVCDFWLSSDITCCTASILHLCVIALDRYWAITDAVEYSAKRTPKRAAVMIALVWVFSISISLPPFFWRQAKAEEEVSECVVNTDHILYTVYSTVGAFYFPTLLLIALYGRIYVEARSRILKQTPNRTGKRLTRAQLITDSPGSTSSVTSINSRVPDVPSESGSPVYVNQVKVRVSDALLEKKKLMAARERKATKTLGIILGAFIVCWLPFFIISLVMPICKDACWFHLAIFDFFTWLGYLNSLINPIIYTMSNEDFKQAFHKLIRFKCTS

Compound	IC50 (HTR3A)	Emax (HTR3A)	IC50 (ROCK1; Binding ROCK1 Inhibitor)	Emax (ROCK1)	IC50 (SERT)	Emax (SERT)	EC50 (HTR1B)	Emax (HTR1B)	EC50 (OPRK1)	Emax (OPRK1)	IC50 (OPRM1)	Emax (OPRM1)	EC50 (HTR2B)	Emax (HTR2B)	IC50 (HTR2A)	Emax (HTR2A)	time at which brain concentration peaked [1]	time at which plasma concentration peaked [1]	Emax (ROCK1; Binding ROCK1 Inhibitor)
CC(C)(C)c1ccc(C#CC(O)c2ccccc2)cc1 (racemic) [Compound 3.3, rac-3-(4-(tert-butyl)phenyl)-1-phenylprop-2-yn-1-ol]	> 10 µM	50.1%	> 10 µM	0%	> 10 µM	0%	> 10 µM	5.2%	> 10 µM	0%	> 10 µM	0.8%	> 10 µM	0%	> 10 µM	0%	30 min	30 min	
Clc1cccc(C#Cc2n[nH]c3ncccc23)c1 [Compound 10.1, 3-((3-chlorophenyl)ethynyl)-1H-pyrazolo[3,4-b]pyridine]	> 10 µM	19.7%	> 10 µM		> 10 µM	0%	> 10 µM	9.3%	> 10 µM	5.4%	> 10 µM	0%	> 10 µM	0%	> 10 µM	0%	150 min	60 to 240 min	4.2%
